Assay results: patent publication US5919761A, “Peptides for heparin and low molecular weight heparin anticoagulation reversal” (The Board of Regents of the University of Michigan, priority 1995, dated 1999)
Peptide text beside a SMILES is read from it.

Tests used:
[1] = test system: standard, unfractionated heparin; test: Percent reversal of standard heparin anticoagulation by variant peptides and protamine, in vivo canine study, coagulation tests; design: species or system dogs; conditions: for Percent reversal of heparin anticoagulation, ACT: heparin 150 IU/kg IV, agent 1.5 mg/kg IV over 10 seconds
Description: Data are expressed as a mean ±1 SD. Statistical analysis using linear regression for determination of correlation coefficients, and analysis of variance (ANOVA) or unpaired two-way Student's t-test; p<0.05 was accepted as statistically significant.
(§1) Anticoagulation reversal was assessed by a number of standard coagulation tests performed upon samples of venous blood: activated clotting time (ACT), prothrombin time (PT), activated partial thromboplastin time (aPTT), thrombin clotting time (TCT), heparin concentration by assay for FXa inhibitory activity (FXa), white cell count (WBC), and platelet counts (PLT). Measurements were made 3 minutes prior to heparin reversal (baseline) and 3 minutes and 30 minutes post-administration of the heparin reversal agent. The "Heparin" row sets forth the observed reversal as a consequence of expected heparin metabolism or degradation alone.

[2] = Platelet and white cell counts after standard heparin reversal, canine study; type: in vivo; conditions: dogs, 3 minutes post-reversal, resolved by about 30 minutes
Description: as §1

[3] = Platelet count, leukocyte count and bleeding time after LMWH reversal at different rates, canine study; type: in vivo, dogs; conditions: dogs, Logiparin; administered over 10 sec
Description: (§2) The anticoagulation-reversing agents were administered rapidly over 10 seconds to maximize hemodynamic effects or more slowly over a 3 minute interval. Changes in LMWH anticoagulation occurring from metabolism alone were determined in a separate group of dogs not given any reversal agent.

[4] = Hemodynamic studies and total toxicity score after standard heparin reversal, canine study; conditions: dogs
Description: As used hereinafter, the peptides will be identified by their total cationic charge value, e.g., [+8], [+16], etc.
Hemodynamic studies were conducted by measuring mean arterial pressure (MAP), heart rate (HR), and maximum percent changes in cardiac output (CO) and systemic oxygen consumption (VO2).
Total toxicity scores (TTS) were developed that reflected maximum declines in each of four parameters (MAP, CO, VO2 and HR) over the first 5 minutes after reversal, the latter being the time of expected greatest adverse hemodynamic effect. The maximum changes occurring in an individual dog over the first 5 minutes were divided by the standard deviation derived from the entire group of tested animals and the four scores were added, resulting in a TTS for each individual dog. The TTS values for each dog were then summed to obtain an average TTS and SD for each peptide studied.

[5] = Hemodynamic studies and total toxicity score after LMWH reversal, canine study; conditions: dogs
Description: (§3) Hemodynamic studies were conducted by measuring mean arterial pressure (MAP) in mm Mercury, maximum percent changes in cardiac output (CO) and systemic oxygen consumption (VO2), and heart rate (HR) in beats per minute. Measurements and calculations were made at baseline, before LMWH administration, 3 minutes before reversal, every 30 seconds for 5 minutes after reversal, and at 10, 20, and 30 minutes after reversal.
Total toxicity scores (TTS) were developed that reflected maximum declines in each of four parameters (MAP, CO, VO2 and HR) over the first 5 minutes after reversal. The maximum changes occurring in an individual dog over the first 5 minutes were divided by the standard deviation derived from the entire group of tested animals and the four scores were added, resulting in a TTS for each individual dog. The TTS values for each dog were then summed to obtain an average TTS and SD for each peptide studied. The more negative the value of TTS, the more toxic the compound.

[6] = Hemodynamic studies and total toxicity score after LMWH reversal at different rates, canine study; conditions: dogs, Logiparin; administered over 10 sec
Description: as §2, §3
TTS were developed that reflected maximum declines in each of four parameters (MAP, CO, VO2 and HR) over the first 5 minutes after reversal in the same manner as described hereinabove.

LMWH (LHN-1, Logiparin) [7] = test: Percent reversal of LMWH anticoagulation, agents administered at different rates, canine study; type: in vivo, dogs
Description: Anticoagulation reversal was assessed by a number of standard coagulation tests performed upon samples of venous blood in the manner described hereinabove. Measurements were made 3 minutes prior to heparin reversal (baseline) and 3 minutes, 10 minutes, and 30 minutes post-administration of the heparin reversal agent.

[8] = Platelet and white blood cell count after LMWH reversal, canine study; type: in vivo; conditions: dogs, Logiparin
Description: In addition to the measurements reported on Table 6, studies were conducted to measure the activated partial thromboplastin time (aPTT), platelet count, and white blood cell count. […] However, the [+18B] variant produced greater aPTT reversal than protamine at the 3, 10 and 30 minute measurements (64%, 95%, and 93%, respectively, as compared to 50%, 83%, and 78%, respectively, for protamine).

LMWH (LHN-1, Logiparin) [9] = test: Percent reversal of low molecular weight heparin anticoagulation, in vivo canine study, coagulation tests; design: species or system dogs; conditions: for aPTT reversal: Logiparin
Description: Anticoagulation reversal was assessed by a number of standard coagulation tests performed upon samples of venous blood: activated clotting time (ACT), heparin concentration by assay for FXa inhibitory activity (FXa), thrombin clotting time (TCT), and heparin concentration by assay for FIIa inhibitory activity (FIIa). Measurements were made 3 minutes prior to heparin reversal (baseline) and 3 minutes, 10 minutes, and 30 minutes post-administration of the heparin reversal agent. […] The coagulation data were corrected for naturally occurring metabolism.

[10] = Logiparin, maximum percent change
[11] = administered over 10 sec, 3 min
[12] = administered over 10 sec, 10 min
[13] = administered over 10 sec, 30 min

In the case of PK4 S3 KPVK6 PKVSK6 G2 K4 [[+21]], the “in vivo heparin reversal (summary)” value ([1]; dogs, standard heparin) is reported as “nearly complete reversal”, the “Percent reversal of heparin anticoagulation, ACT” value ([1]; dogs, 3 min post-administration) is reported as 81% and the “Percent reversal of heparin anticoagulation, ACT” value ([1]; dogs, 30 min) is reported as 85%. The “Percent reversal of heparin anticoagulation, APTT” value ([1]; same study, 3 min) was 88%, the “Percent reversal of heparin anticoagulation, FNa” value ([1]; same study, 3 min) was 59% and the “Percent reversal of heparin anticoagulation, FXa” value ([1]; same study, 3 min) was 55%. For the same compound, the “Percent reversal of heparin anticoagulation, PT” value ([1]; same study, 3 min) was 97%, the “Percent reversal of heparin anticoagulation, TCT” value ([1]; same study, 3 min) was 91% and the “Percent reversal of heparin anticoagulation, APTT” value ([1]; same study, 30 min) was 85%. The “Percent reversal of heparin anticoagulation, FXa” value ([1]; same study, 30 min) was 49%, the “Percent reversal of heparin anticoagulation, PT” value ([1]; same study, 30 min) was 93% and the “Percent reversal of heparin anticoagulation, TCT” value ([1]; same study, 30 min) was 79%. For the same compound, the platelet counts [2] was “thrombocytopenia”, the Maximal thrombocytopenia [3] was -43% and the ΔHR [4] was -21. The ΔMAP ([4]; average maximum decline in first five minutes after peptide administration) was -35, the “average total toxicity score (TTS±SD)” value ([4]; first 5 minutes after reversal, more negative = more toxic) was -6.9±3.8 and the ΔCO ([4]; maximum percent change) was -44%. The ΔVO2 ([4]; maximum percent change) was -38%.
For `CC(=O)N1CCC[C@H]1C(=O)N[C@@H](C)C(=O)N[C@@H](CCCCN)C(=O)N[C@@H](CCCCN)C(=O)N[C@@H](C)C(=O)N[C@@H](C)C(=O)N[C@@H](CCCCN)C(=O)N[C@@H](CCCCN)C(=O)N[C@@H](C)C(=O)N[C@@H](CCCCN)C(=O)N[C@@H](CCCCN)C(=O)N[C@@H](C)C(=O)N[C@@H](C)C(=O)N[C@@H](CCCCN)C(=O)N[C@@H](CCCCN)C(=O)N[C@@H](C)C(=O)N[C@@H](CCCCN)C(=O)N[C@@H](CCCCN)C(=O)N[C@@H](C)C(=O)N[C@@H](C)C(=O)N[C@@H](CCCCN)C(=O)N[C@@H](CCCCN)C(=O)N[C@@H](C)C(=O)N[C@@H](CCCCN)C(=O)N[C@@H](CCCCN)C(=O)N[C@@H](C)C(=O)N[C@@H](C)C(=O)N[C@@H](CCCCN)C(=O)N[C@@H](CCCCN)C(=O)N[C@@H](C)C(=O)N[C@@H](CCCCN)C(=O)N[C@@H](CCCCN)C(N)=O` [[+18B], acetyl-PA(K2 A2 K2 A)4 K2 -amide] (Ac-PAKKAAKKAKKAAKKAKKAAKKAKKAAKKAKK-NH2), the “Total Toxicity Score” value ([5]; LMWH, 50% less dose (1:2 peptide to LMWH)) was “about -1.62”, the “maximum mean increase in pulmonary artery diastolic (PAD) pressure” value ([5]; Logiparin) was “no increase” and the “maximum mean increase in pulmonary artery systolic (PAS) pressure” value ([5]; Logiparin) was “no increase”. For the same compound, the ΔHR ([5]; Logiparin) was -9 beats per minute, the ΔMAP ([5]; Logiparin) was -10 mm Mercury and the “Total Toxicity Score” value ([5]; Logiparin, first 5 minutes after reversal, 1:1 peptide to LMWH) was -4.1 ± 1.6. For the same compound, the ΔCO [5, 10] was -18%, the ΔVO2 [5, 10] was -12% and the “Total Toxicity Score” value [6] was -3.1 ± 1.5. The ΔCO [6] was -18%, the ΔHr [6] was -9 beats per minute and the ΔMAP [6] was -10 mm Mercury. The ΔVO2 [6] was -12%, the “Percent reversal of LMWH anticoagulation, FNa” value (LMWH (LHN-1, Logiparin) [7]; [11]) was 95% and the “Percent reversal of LMWH anticoagulation, FXa” value (LMWH (LHN-1, Logiparin) [7]; [11]) was 64%. The “Percent reversal of LMWH anticoagulation, TCT” value (LMWH (LHN-1, Logiparin) [7]; [11]) was 99%, the “Percent reversal of LMWH anticoagulation, ACT” value (LMWH (LHN-1, Logiparin) [7]; [12]) was 87% and the “Percent reversal of LMWH anticoagulation, FNa” value (LMWH (LHN-1, Logiparin) [7]; [12]) was 72%. The “Percent reversal of LMWH anticoagulation, FXa” value (LMWH (LHN-1, Logiparin) [7]; [12]) was 34%, the “Percent reversal of LMWH anticoagulation, TCT” value (LMWH (LHN-1, Logiparin) [7]; [12]) was 95% and the “Percent reversal of LMWH anticoagulation, ACT” value (LMWH (LHN-1, Logiparin) [7]; [13]) was 98%. The “Percent reversal of LMWH anticoagulation, FNa” value (LMWH (LHN-1, Logiparin) [7]; [13]) was 74%, the “Percent reversal of LMWH anticoagulation, FXa” value (LMWH (LHN-1, Logiparin) [7]; [13]) was 52% and the “Percent reversal of LMWH anticoagulation, TCT” value (LMWH (LHN-1, Logiparin) [7]; [13]) was 100%. The “Percent reversal of LMWH anticoagulation, ACT” value (LMWH (LHN-1, Logiparin) [7]; dogs, Logiparin, agent administered over 10 sec, 3 min post-administration) was 87%, the “decline in white blood cell count” value [8] was “greatest” and the “mean decline in platelet count” value [8] was -56%. It also gave an aPTT reversal (LMWH (LHN-1, Logiparin) [9]; dogs, 3 minute measurement) of 64%, an aPTT reversal (LMWH (LHN-1, Logiparin) [9]; dogs, 10 minute measurement) of 95% and an aPTT reversal (LMWH (LHN-1, Logiparin) [9]; dogs, 30 minute measurement) of 93%. The “Percent reversal of LMWH anticoagulation, ACT” value (LMWH (LHN-1, Logiparin) [9]; dogs, Logiparin 150 IU/kg, agent 1.5 mg/kg IV after 30 min, 3 min post-administration, corrected for metabolism) was 87%, the “Percent reversal of LMWH anticoagulation, FNa” value (LMWH (LHN-1, Logiparin) [9]; same study, 3 min) was 96% and the “Percent reversal of LMWH anticoagulation, FXa” value (LMWH (LHN-1, Logiparin) [9]; same study, 3 min) was 64%. The “Percent reversal of LMWH anticoagulation, TCT” value (LMWH (LHN-1, Logiparin) [9]; same study, 3 min) was 99%, the “Percent reversal of LMWH anticoagulation, ACT” value (LMWH (LHN-1, Logiparin) [9]; same study, 10 min) was 93% and the “Percent reversal of LMWH anticoagulation, FNa” value (LMWH (LHN-1, Logiparin) [9]; same study, 10 min) was 72%. The “Percent reversal of LMWH anticoagulation, FXa” value (LMWH (LHN-1, Logiparin) [9]; same study, 10 min) was 34%, the “Percent reversal of LMWH anticoagulation, TCT” value (LMWH (LHN-1, Logiparin) [9]; same study, 10 min) was 95% and the “Percent reversal of LMWH anticoagulation, ACT” value (LMWH (LHN-1, Logiparin) [9]; same study, 30 min) was 102%. The “Percent reversal of LMWH anticoagulation, FNa” value (LMWH (LHN-1, Logiparin) [9]; same study, 30 min) was 74%, the “Percent reversal of LMWH anticoagulation, FXa” value (LMWH (LHN-1, Logiparin) [9]; same study, 30 min) was 52% and the “Percent reversal of LMWH anticoagulation, TCT” value (LMWH (LHN-1, Logiparin) [9]; same study, 30 min) was 96%. For the same compound, the “Maximal decline in leukocyte count” value [3] was -21% and the Maximal thrombocytopenia [3] was -56%.
